Laboratory results: ChEMBL document CHEMBL6096632, “Synthesis and evaluation of N-arylindazole-3-carboxamide derivatives as novel antiviral agents against SARS-CoV-2” (Bioorg Med Chem Lett, 2024)

Assays:
[1] = Cytotoxicity against African green monkey Vero cells incubated for 24 hrs by WST reagent based EZ-cytox assay; format: toxicity, cell-based; settings: chlorocebus sabaeus
[2] = tested on: Middle East respiratory syndrome-related coronavirus; assay: Antiviral activity against MERS-CoV expressing spike protein infected in African green monkey Vero cells assessed as inhibition of viral growth by Hoechst 33342 staining based immunofluorescence analysis; format: functional, organism-based
SARS-CoV-2 = assay: Antiviral activity against SARS-CoV-2 expressing nucleocapsid protein infected in African green monkey Vero cells assessed as inhibition of viral growth by Hoechst 33342 staining based immunofluorescence analysis; format: functional, organism-based; settings: Severe acute respiratory syndrome coronavirus 2, Vero
[3] = Selectivity index, ratio of CC50 for African green monkey Vero cells to EC50 for antiviral activity against SARS-CoV-2 expressing nucleocapsid protein infected in African green monkey Vero cells; format: toxicity, cell-based; settings: read-out: Ratio CC50/EC50
[4] = Cytotoxicity against HFL1 cells incubated for 24 hrs by WST reagent based EZ-cytox assay; format: toxicity, cell-based; settings: human
[5] = Cytotoxicity against mouse L929 cells incubated for 24 hrs by WST reagent based EZ-cytox assay; format: toxicity, cell-based
[6] = Cytotoxicity against mouse NIH3T3 cells incubated for 24 hrs by WST reagent based EZ-cytox assay; format: toxicity, cell-based
[7] = Cytotoxicity against CHO-K1 cells incubated for 24 hrs by WST reagent based EZ-cytox assay; format: toxicity, cell-based, Cricetulus griseus; settings: chinese hamster
hERG (KCNH2) = hERG (KCNH2) (Homo sapiens, UniProt Q12809); assay: Inhibition of human ERG at 10 uM by fluorescence polarization relative to control; format: toxicity
hERG (KCNH2), sequence (Q12809 whole entry): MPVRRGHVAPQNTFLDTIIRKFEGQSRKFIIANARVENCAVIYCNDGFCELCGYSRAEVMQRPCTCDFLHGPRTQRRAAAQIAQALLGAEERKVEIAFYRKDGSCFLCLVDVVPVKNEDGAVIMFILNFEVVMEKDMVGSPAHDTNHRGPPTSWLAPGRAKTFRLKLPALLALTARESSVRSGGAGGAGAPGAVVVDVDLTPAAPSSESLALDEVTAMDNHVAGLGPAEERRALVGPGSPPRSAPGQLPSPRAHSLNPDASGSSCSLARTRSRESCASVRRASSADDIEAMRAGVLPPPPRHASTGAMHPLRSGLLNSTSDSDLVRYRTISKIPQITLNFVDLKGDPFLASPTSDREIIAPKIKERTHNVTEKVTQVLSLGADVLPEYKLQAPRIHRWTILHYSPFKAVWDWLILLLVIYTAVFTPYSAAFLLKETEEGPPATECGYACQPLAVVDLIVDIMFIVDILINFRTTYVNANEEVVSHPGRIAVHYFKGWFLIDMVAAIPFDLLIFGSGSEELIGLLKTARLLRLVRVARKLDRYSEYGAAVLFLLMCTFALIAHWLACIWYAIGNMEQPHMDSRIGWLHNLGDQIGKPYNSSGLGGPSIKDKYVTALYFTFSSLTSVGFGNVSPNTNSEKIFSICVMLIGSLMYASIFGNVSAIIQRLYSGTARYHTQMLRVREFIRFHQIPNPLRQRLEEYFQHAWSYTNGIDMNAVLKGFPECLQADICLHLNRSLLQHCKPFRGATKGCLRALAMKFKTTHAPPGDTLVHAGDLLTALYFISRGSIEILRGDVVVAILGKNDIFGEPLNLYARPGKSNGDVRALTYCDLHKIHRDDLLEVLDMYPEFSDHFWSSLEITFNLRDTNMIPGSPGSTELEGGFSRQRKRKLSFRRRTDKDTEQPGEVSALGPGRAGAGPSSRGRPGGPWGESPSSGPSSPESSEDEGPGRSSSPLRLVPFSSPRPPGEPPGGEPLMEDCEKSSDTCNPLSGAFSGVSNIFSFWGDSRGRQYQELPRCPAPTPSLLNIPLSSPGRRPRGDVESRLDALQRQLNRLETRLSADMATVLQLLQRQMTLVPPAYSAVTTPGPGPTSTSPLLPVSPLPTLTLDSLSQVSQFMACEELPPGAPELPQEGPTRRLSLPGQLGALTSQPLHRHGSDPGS

CYP1A2 = biological target: T1, CYP1A2 (Homo sapiens, UniProt P05177); assay: Inhibition of CYP1A2 in human liver microsomes using phenacetin as substrate at 10 uM preincubated for 5 mins followed by substrate and NADPH addition and measured after 20 mins by HPLC-MS/MS analysis; format: ADME, Microsome; settings: probe phenacetin, time 25 min
T1 sequence (P05177 whole entry): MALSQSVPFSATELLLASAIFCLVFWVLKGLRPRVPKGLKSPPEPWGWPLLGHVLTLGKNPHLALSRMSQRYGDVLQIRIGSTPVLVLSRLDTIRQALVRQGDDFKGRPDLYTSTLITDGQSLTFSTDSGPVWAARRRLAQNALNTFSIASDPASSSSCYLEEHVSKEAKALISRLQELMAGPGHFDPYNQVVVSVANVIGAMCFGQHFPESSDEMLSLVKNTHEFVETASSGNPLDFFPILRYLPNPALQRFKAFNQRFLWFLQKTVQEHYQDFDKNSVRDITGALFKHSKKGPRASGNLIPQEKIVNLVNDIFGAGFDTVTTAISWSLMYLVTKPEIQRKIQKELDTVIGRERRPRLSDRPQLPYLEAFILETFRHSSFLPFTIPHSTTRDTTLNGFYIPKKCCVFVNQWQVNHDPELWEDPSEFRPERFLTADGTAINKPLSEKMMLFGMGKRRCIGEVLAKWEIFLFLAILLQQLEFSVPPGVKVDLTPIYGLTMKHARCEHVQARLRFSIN

CYP2C9 = CYP2C9 (Homo sapiens, UniProt P11712); assay: Inhibition of CYP2C9 in human liver microsomes using tolbutamide as substrate at 10 uM preincubated for 5 mins followed by substrate and NADPH addition and measured after 20 mins by HPLC-MS/MS analysis; format: ADME, Microsome; settings: probe tolbutamide, time 25 min
CYP2C9, sequence (P11712 whole entry): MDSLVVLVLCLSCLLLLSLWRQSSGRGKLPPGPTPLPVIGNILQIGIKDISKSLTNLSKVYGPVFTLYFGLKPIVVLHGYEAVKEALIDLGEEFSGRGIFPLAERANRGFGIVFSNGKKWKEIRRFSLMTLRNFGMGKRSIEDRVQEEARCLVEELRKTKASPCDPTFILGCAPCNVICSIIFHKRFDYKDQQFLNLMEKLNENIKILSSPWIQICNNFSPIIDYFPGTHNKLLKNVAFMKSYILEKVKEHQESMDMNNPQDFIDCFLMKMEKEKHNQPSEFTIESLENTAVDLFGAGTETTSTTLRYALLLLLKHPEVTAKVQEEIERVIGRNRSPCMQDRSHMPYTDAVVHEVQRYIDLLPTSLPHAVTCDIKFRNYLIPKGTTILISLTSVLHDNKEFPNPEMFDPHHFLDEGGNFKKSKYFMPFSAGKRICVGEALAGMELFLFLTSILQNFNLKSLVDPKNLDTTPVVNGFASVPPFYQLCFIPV

CYP2C19 = CYP2C19 (Homo sapiens, UniProt P33261); assay: Inhibition of CYP2C19 in human liver microsomes using S-mephenytoin as substrate at 10 uM preincubated for 5 mins followed by substrate and NADPH addition and measured after 20 mins by HPLC-MS/MS analysis; format: ADME, Microsome; settings: probe S-mephenytoin, time 25 min
CYP2C19, sequence (P33261 whole entry): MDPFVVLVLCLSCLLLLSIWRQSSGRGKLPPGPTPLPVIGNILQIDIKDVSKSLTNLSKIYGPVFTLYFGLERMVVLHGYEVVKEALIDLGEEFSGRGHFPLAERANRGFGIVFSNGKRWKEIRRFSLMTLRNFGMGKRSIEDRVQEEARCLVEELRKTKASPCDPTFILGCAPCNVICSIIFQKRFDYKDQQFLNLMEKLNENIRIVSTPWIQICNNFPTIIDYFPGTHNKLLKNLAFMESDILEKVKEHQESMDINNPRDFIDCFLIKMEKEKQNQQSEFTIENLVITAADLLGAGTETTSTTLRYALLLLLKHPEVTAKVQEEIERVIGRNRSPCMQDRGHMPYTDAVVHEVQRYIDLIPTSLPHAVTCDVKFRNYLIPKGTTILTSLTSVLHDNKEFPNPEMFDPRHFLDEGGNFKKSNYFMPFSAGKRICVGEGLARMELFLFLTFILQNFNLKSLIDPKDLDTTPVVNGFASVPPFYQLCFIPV

CYP2D6 = CYP2D6 (Homo sapiens, UniProt P10635); assay: Inhibition of CYP2D6 in human liver microsomes using dextromethorphan as substrate at 10 uM preincubated for 5 mins followed by substrate and NADPH addition and measured after 20 mins by HPLC-MS/MS analysis; format: ADME, Microsome; settings: probe dextromethorphan, time 25 min
CYP2D6, sequence (P10635 whole entry): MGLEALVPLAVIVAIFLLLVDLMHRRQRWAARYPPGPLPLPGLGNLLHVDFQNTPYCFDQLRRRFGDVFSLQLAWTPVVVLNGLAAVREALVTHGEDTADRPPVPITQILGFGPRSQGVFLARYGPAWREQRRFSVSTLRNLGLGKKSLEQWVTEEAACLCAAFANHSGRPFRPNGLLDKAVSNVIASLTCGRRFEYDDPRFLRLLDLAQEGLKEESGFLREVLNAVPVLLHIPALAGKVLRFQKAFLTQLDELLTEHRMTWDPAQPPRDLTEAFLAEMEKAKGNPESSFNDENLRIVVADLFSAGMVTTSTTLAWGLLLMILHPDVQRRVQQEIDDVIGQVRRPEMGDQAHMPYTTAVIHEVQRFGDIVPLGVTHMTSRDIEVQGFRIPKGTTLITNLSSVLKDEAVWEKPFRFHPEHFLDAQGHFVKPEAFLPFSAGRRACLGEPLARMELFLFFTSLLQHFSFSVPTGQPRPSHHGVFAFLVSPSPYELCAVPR

CYP3A4 = CYP3A4 (Homo sapiens, UniProt P08684); assay: Inhibition of CYP3A4 in human liver microsomes using […] as substrate at 10 uM preincubated for 5 mins followed by substrate and NADPH addition and measured after 20 mins by HPLC-MS/MS analysis; format: ADME, Microsome; settings: probe sorafenib, time 25 min
CYP3A4, sequence (P08684 whole entry): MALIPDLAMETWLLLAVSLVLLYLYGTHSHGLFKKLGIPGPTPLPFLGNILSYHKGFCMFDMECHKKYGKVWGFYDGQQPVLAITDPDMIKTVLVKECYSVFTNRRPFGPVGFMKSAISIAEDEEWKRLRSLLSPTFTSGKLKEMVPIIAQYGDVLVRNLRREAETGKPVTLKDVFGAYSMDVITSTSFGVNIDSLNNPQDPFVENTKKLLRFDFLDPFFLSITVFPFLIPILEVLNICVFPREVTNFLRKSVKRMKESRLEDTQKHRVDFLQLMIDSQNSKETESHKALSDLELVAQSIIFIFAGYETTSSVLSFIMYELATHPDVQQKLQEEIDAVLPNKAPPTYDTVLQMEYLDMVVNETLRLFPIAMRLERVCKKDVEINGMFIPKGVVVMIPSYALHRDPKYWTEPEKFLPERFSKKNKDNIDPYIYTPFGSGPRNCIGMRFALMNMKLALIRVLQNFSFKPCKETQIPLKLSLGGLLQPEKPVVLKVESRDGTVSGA

[8] = Metabolic stability in mouse liver microsomes assessed as parent compound remaining preincubated for 10 mins followed by NADPH addition and measured after 30 mins by HPLC-MS/MS analysis; format: ADME, Microsome; settings: time 40 min, read-out: Stability
[9] = Metabolic stability in human liver microsomes assessed as parent compound remaining preincubated for 10 mins followed by NADPH addition and measured after 30 mins by HPLC-MS/MS analysis; format: ADME, Microsome; settings: time 40 min, read-out: Stability

Structure (SMILES) | CC50 at 24 h [1] [µM] | EC50 (SARS-CoV-2) [µM] | selectivity ratio [3] | other results
CCC(CC)COC(=O)[C@H](C)N[P@](=O)(OC[C@H]1O[C@@](C#N)(c2ccc3c(N)ncnn23)[C@H](O)[C@@H]1O)Oc1ccccc1 | > 25 |  |  | 
O=C(Nc1cc(Cl)cc(Cl)c1)c1n[nH]c2ccccc12 | > 25 | > 25 | 1 | EC50 [2]: 1.7 µM
Cc1cc(C)cc(NC(=O)c2n[nH]c3ccc(Cl)cc23)c1 | > 25 | 2.3 | > 11.1 | 
O=C(Nc1ccccc1Cl)c1n[nH]c2ccc(Cl)cc12 | > 25 | > 25 | 1 | 
O=C(Nc1cc(Cl)cc(Cl)c1)c1n[nH]c2ccc(Cl)cc12 | > 20 | 0.69 | > 36 | CC50 at 24 h [4]: > 100 µM; CC50 at 24 h [5]: > 100 µM; CC50 at 24 h [6]: > 100 µM; CC50 at 24 h [7]: > 100 µM; inhibition at 10 µM (hERG (KCNH2)): < 1%; inhibition at 20 min, 10 µM (CYP1A2): 11%; inhibition at 20 min, 10 µM (CYP2C9): 14%; inhibition at 20 min, 10 µM (CYP2C19): 8%; inhibition at 20 min, 10 µM (CYP2D6): 1%; inhibition at 20 min, 10 µM (CYP3A4): 54%; remaining at 0.5 h [8]: 48%; remaining at 0.5 h [9]: 97%
O=C(Nc1ccc(Cl)cc1)c1n[nH]c2ccc(Cl)cc12 | > 25 | > 25 | 1 | 
O=C(Nc1ccccc1F)c1n[nH]c2ccc(Cl)cc12 | > 25 | > 25 | 1 | 
O=C(NC1CCCCC1)c1n[nH]c2ccc(Cl)cc12 | > 25 | > 25 | 1 | 
O=C(Nc1cc(Cl)cc(Cl)c1)c1n[nH]c2cc(F)ccc12 | > 25 | 1.2 | > 21.4 | 
N#Cc1ccc(NC(=O)c2n[nH]c3ccc(Cl)cc23)cc1 | > 25 | > 25 | 1 | 
O=C(Nc1cccc(C(F)(F)F)c1)c1n[nH]c2ccc(Cl)cc12 | > 25 | 2.8 | > 8.8 | 
O=C(Nc1cccc([N+](=O)[O-])c1)c1n[nH]c2ccc(Cl)cc12 | > 25 | > 25 | 1 | 
N#Cc1cccc(NC(=O)c2n[nH]c3ccc(Cl)cc23)c1 | > 25 | 1.8 | > 13.7 | 
N#Cc1ccccc1NC(=O)c1n[nH]c2ccc(Cl)cc12 | > 25 | > 25 | 1 | 
Cc1cccc(NC(=O)c2n[nH]c3ccc(Cl)cc23)c1 | > 25 | > 25 | 1 | 
O=C(Nc1cc(Cl)cc(Cl)c1)c1n[nH]c2cc(Cl)ccc12 | > 25 | > 25 | 1 | 
O=C(Nc1cc(Cl)cc(Cl)c1)c1n[nH]c2ccc(F)cc12 | > 25 | > 25 | 1 | 
O=C(Nc1cccc(OC(F)(F)F)c1)c1n[nH]c2ccc(Cl)cc12 | > 25 | 5.5 | > 4.6 | 
CCCCNC(=O)c1n[nH]c2ccc(Cl)cc12 | > 25 | > 25 | 1 | 
O=C(Nc1cccc(F)c1)c1n[nH]c2ccc(Cl)cc12 | > 25 | > 25 | 1 | 
O=C(Nc1ccc(F)cc1)c1n[nH]c2ccc(Cl)cc12 | > 25 | > 25 | 1 | 
